Patent US10179125B2, “Substituted pyridines as bromodomain inhibitors” (Zenith Epigenetics Ltd., priority 2014, dated 2019)

Legend:
hIL-6 = experiment: Inhibition of hIL-6 mRNA transcription in LPS-stimulated U937 cells; format: cell-based, Human; details: 1 h pretreatment, LPS 3 h; for IC50: Homo sapiens, U-937, PMA-differentiated U937 cells, read-out: IL-6 activity
Experimental: Human leukemic monocyte lymphoma U937 cells (CRL-1593.2) were plated at a density of 3.2×10^4 cells per well in a 96-well plate in 100 μL RPMI-1640 containing 10% FBS and penicillin/streptomycin, and differentiated into macrophages for 3 days in 60 ng/mL PMA ([…]) at 37° C. in 5% CO2 prior to the addition of compound. The cells were pretreated for 1 h with increasing concentrations of test compound in 0.1% DMSO prior to stimulation with 1 ug/mL lipopolysaccharide from Escherichia coli. Triplicate wells were used for each concentration. The cells were incubated at 37° C., 5% CO2 for 3 h before the cells were harvested. At time of harvest, media was removed and cells were rinsed in 200 μL PBS. Cells were harvested using the mRNA Catcher PLUS kit according to manufacturer's instructions. The eluted mRNA was then used in a one-step quantitative real-time PCR reaction using components of the RNA UltraSense™ One-Step Kit (Life Technologies) together with Applied Biosystems TaqMan® primer-probes for hIL-6 and Cyclophilin. Real-time PCR plates were run on a ViiA™7 real time PCR machine (Applied Biosystems), data was analyzed, normalizing the Ct values for hIL-6 to an internal control, prior to determining the fold expression of each sample, relative to the control.

Human AML MV-4-11 cells = experiment: Inhibition of cell proliferation in MV4-11 cells (CellTiter Aqueous One); format: cell-based; details: 72 h; for IC50: Homo sapiens
Experimental: MV4-11 cells (CRL-9591) were plated at a density of 5×10^4 cells per well in 96 well flat bottom plates and treated with increasing concentrations of test compound or DMSO (0.1%) in IMDM media containing 10% FBS and penicillin/streptomycin. Triplicate wells were used for each concentration and a well containing only media was used as a control. Plates were incubated at 37° C., 5% CO2 for 72 h before adding 20 μL of the CellTiter Aqueous One Solution (Promega) to each well and incubated at 37° C., 5% CO2 for an additional 3-4 h. The absorbance was read at 490 nm in a spectrophotometer and the percentage of cell titer relative to DMSO-treated cells was calculated after correcting for background by subtracting the blank well's signal. IC50 values were calculated using the GraphPad Prism software.

cMYC = experiment: Inhibition of cMYC expression in MV4-11 cells (real-time PCR); format: cell-based, Human; details: 3 h, cMYC mRNA; for IC50: Homo sapiens, read-out: c-myc activity
Experimental: MV4-11 cells (CRL-9591) were plated at a density of 2.5×10^4 cells per well in 96 well U-bottom plates and treated with increasing concentrations of test compound or DMSO (0.1%) in IMDM media containing 10% FBS and penicillin/streptomycin, and incubated for 3 h at 37° C. Triplicate wells were used for each concentration. Cells were pelleted by centrifugation and harvested using the mRNA Catcher PLUS kit according to manufacturer's instructions. The eluted mRNA isolated was then used in a one-step quantitative real-time PCR reaction, using components of the RNA UltraSense™ One-Step Kit (Life Technologies) together with Applied Biosystems TaqMan® primer-probes for cMYC and Cyclophilin, Real-time PCR plates were run on a ViiA™7 real time PCR machine (Applied Biosystems), data was analyzed, normalizing the Ct values for cMYC to an internal control, prior to determining the fold expression of each sample, relative to the control.

[1] = target: T1, Brd4 bromodomain 1 (BRD4(1)) (Homo sapiens, UniProt O60885); experiment: Inhibition of tetra-acetylated histone H4 binding to BET bromodomain (HTRF/FRET); details: His-tagged bromodomain 200 nM, biotinylated tetra-acetylated histone H4 peptide, 2 h room temperature
T1 construct: made in house; host or cells: E. coli BL21(DE3)
Experimental: Proteins were cloned and overexpressed with a N-terminal 6×His tag, then purified by nickel affinity followed by size exclusion chromatography. Briefly, E. coli BL21(DE3) cells were transformed with a recombinant expression vector encoding N-terminally Nickel affinity tagged bromodomains from Brd2, Brd3, Brd4. Cell cultures were incubated at 37° C. with shaking to the appropriate density and induced overnight with IPTG. The supernatant of lysed cells was loaded onto Ni-IDA column for purification, Eluted protein was pooled, concentrated and further purified by size exclusion chromatography. Fractions representing monomeric protein were pooled, concentrated, aliquoted, and frozen at −80° C. for use in subsequent experiments.
Binding of tetra-acetylated histone H4 and BET bromodomains was confirmed by a Homogenous Time Resolved Fluorescence Resonance Energy Transfer (HTRF®) method, N-terminally His-tagged bromodomains (200 nM) and biotinylated tetra-acetylated histone H4 peptide (25-50 nM, Millipore) were incubated in the presence of Europium Cryptate-labeled streptavidin (Cisbio Cat, #610SAKLB) and XL665-labeled monoclonal anti-His antibody (Cisbio Cat.1461HISXLB) in a white 96 well microtiter plate (Greiner). For inhibition assays, serially diluted test compound was added to these reactions in a 0.2% final concentration of DMSO. Duplicate wells were used for each concentration tested. Final buffer concentrations were 30 mM HEPES pH 7.4, 30 mM NaCl, 0.3 mM CHAPS, 20 mM phosphate pH 7.0, 320 mM KF, 0.08% BSA. After a 2 h incubation at room temperature, fluorescence was measured at 665 and 620 nm with a SynergyH4 plate reader (Biotek). The binding inhibitory activity was shown by a decrease in […] relative to 620 nm fluorescence. IC50 values were determined from a dose response curve.

Compound | IC50 (hIL-6) [nM] | IC50 (Human AML MV-4-11 cells) [nM] | IC50 (cMYC) [nM] | IC50 [1] [nM] | Cell Proliferation activity (Human AML MV-4-11 cells) | c-myc activity (cMYC) | IL-6 activity (hIL-6; PMA-differentiated U937 cells)
COc1ncc(-c2c(C)noc2C)cc1OCc1ccccn1 [Example 40, 4-(6-methoxy-5-(pyridin-2-ylmethoxy)pyridin-3-yl)-3,5-dimethylisoxazole] | 300 to 3000 | 3000 to 30000 | 300 to 3000 | ≤ 300 |  |  | 
COc1ncc(-c2c(C)noc2C)cc1NCc1nc2ccccc2s1 [Example 57, N-(benzo[d]thiazol-2-ylmethyl)-5-(3,5-dimethylisoxazol-4-yl)-2-methoxypyridin-3-amine] | 300 to 3000 | 3000 to 30000 | 300 to 3000 | ≤ 300 |  |  | 
COc1ncc(-c2c(C)noc2C)cc1Oc1cc(C(N)=O)ccc1C [Example 67, 3-((5-(3,5-dimethylisoxazol-4-yl)-2-methoxypyridin-3-yl)oxy)-4-methylbenzamide] | 300 to 3000 | 3000 to 30000 | 300 to 3000 | ≤ 300 |  |  | 
COc1ncc(-c2c(C)noc2C)cc1NCc1nccs1 [Example 41, 5-(3,5-dimethylisoxazol-4-yl)-2-methoxy-N-(thiazol-2-ylmethyl)pyridin-3-amine] | 300 to 3000 | 300 to 3000 | ≤ 300 | ≤ 300 |  |  | 
COc1ncc(-c2c(C)noc2C)cc1NCc1cccc2ncccc12 [Example 58, 5-(3,5-dimethylisoxazol-4-yl)-2-methoxy-N-(quinolin-5-ylmethyl)pyridin-3-amine] | 300 to 3000 | 300 to 3000 | 300 to 3000 | ≤ 300 |  |  | 
COc1ncc(-c2c(C)noc2C)cc1NC(C)c1ccccn1 (stereo not drawn) [Example 24, 5-(3,5-dimethylisoxazol-4-yl)-2-methoxy-N-(1-(pyridin-2-yl)ethyl)pyridin-3-amine] | 300 to 3000 | 300 to 3000 | 300 to 3000 | ≤ 300 |  |  | 
Cc1noc(C)c1-c1cnc(Oc2ccccc2)c(NCc2nccs2)c1 [Example 52, 5-(3,5-dimethylisoxazol-4-yl)-2-phenoxy-N-(thiazol-2-ylmethyl)pyridin-3-amine] | 300 to 3000 | 3000 to 30000 | 3000 to 30000 | ≤ 300 |  |  | 
COc1ncc(-c2c(C)noc2C)cc1NCc1nc2ccccc2o1 [Example 46, N-(benzo[d]oxazol-2-ylmethyl)-5-(3,5-dimethylisoxazol-4-yl)-2-methoxypyridin-3-amine] | 300 to 3000 | 3000 to 30000 | 300 to 3000 | ≤ 300 |  |  | 
COc1ncc(-c2c(C)noc2C)cc1NCc1ccncc1 [Example 17, 5-(3,5-dimethylisoxazol-4-yl)-2-methoxy-N-(pyridin-4-ylmethyl)pyridin-3-amine] | 300 to 3000 | 3000 to 30000 | 3000 to 30000 | 300 to 3000 |  |  | 
COc1ncc(-c2c(C)noc2C)cc1NCc1cnoc1 [Example 42, 5-(3,5-dimethylisoxazol-4-yl)-N-(isoxazol-4-ylmethyl)-2-methoxypyridin-3-amine] | 300 to 3000 | 3000 to 30000 | 300 to 3000 | ≤ 300 |  |  | 
COc1ncc(-c2c(C)noc2C)cc1NCc1ccc2ccccc2n1 [Example 47, 5-(3,5-dimethylisoxazol-4-yl)-2-methoxy-N-(quinolin-2-ylmethyl)pyridin-3-amine] |  |  |  | ≤ 300 | Not Active | Not Active | Not Active

Further lines, with some results ahead:

IC50 (hIL-6) [nM] | IC50 (Human AML MV-4-11 cells) [nM] | IC50 (cMYC) [nM] | IC50 [1] [nM] | Compound | Cell Proliferation activity (Human AML MV-4-11 cells) | c-myc activity (cMYC) | IL-6 activity (hIL-6; PMA-differentiated U937 cells)
300 to 3000 | 3000 to 30000 | 300 to 3000 | ≤ 300 | COc1ncc(-c2c(C)noc2C)cc1Nc1cccnc1C [Example 59, 5-(3,5-dimethylisoxazol-4-yl)-2-methoxy-N-(2-methylpyridin-3-yl)pyridin-3-amine] |  |  | 
300 to 3000 | 300 to 3000 | 300 to 3000 | ≤ 300 | COc1ncc(-c2c(C)noc2C)cc1NCc1ccccn1 [Example 21, 5-(3,5-dimethylisoxazol-4-yl)-2-methoxy-N-(pyridin-2-ylmethyl)pyridin-3-amine] |  |  | 
3000 to 30000 |  |  | 300 to 3000 | COc1ncc(-c2c(C)noc2C)cc1NCc1nc2ccccc2[nH]1 [Example 53, N-((1H-benzo[d]imidazol-2-yl)methyl)-5-(3,5-dimethylisoxazol-4-yl)-2-methoxypyridin-3-amine] | Not Active | Not Active | 
≤ 300 | 300 to 3000 | ≤ 300 | ≤ 300 | COc1ncc(-c2c(C)noc2C)cc1Nc1c(C)nn(C)c1C [Example 60, 5-(3,5-dimethylisoxazol-4-yl)-2-methoxy-N-(1,3,5-trimethyl-1H-pyrazol-4-yl)pyridin-3-amine] |  |  | 
300 to 3000 | 3000 to 30000 | 3000 to 30000 | 300 to 3000 | COc1ncc(-c2c(C)noc2C)cc1Oc1cc(C#N)ccc1C [Example 65, 3-((5-(3,5-dimethylisoxazol-4-yl)-2-methoxypyridin-3-yl)oxy)-4-methylbenzonitrile] |  |  | 
300 to 3000 | 3000 to 30000 | 300 to 3000 | 300 to 3000 | COc1ncc(-c2c(C)noc2C)cc1Oc1ccccc1 [Example 4, 4-(6-methoxy-5-phenoxypyridin-3-yl)-3,5-dimethylisoxazole] |  |  | 
300 to 3000 | 300 to 3000 | 300 to 3000 | 300 to 3000 | COc1ncc(-c2c(C)noc2C)cc1NC(C)c1ccccc1 (stereo not drawn) [Example 5, 5-(3,5-dimethylisoxazol-4-yl)-2-methoxy-N-(1-phenylethyl)pyridin-3-amine] |  |  | 
300 to 3000 | 3000 to 30000 | 300 to 3000 | 300 to 3000 | CNc1ncc(-c2c(C)noc2C)cc1Nc1cc(C#N)ccc1C [Example 64, 3-((5-(3,5-dimethylisoxazol-4-yl)-2-(methylamino)pyridin-3-yl)amino)-4-methylbenzonitrile] |  |  | 
300 to 3000 | 300 to 3000 | 300 to 3000 | ≤ 300 | COc1ncc(-c2c(C)noc2C)cc1OCc1ccsc1 [Example 37, 4-(6-methoxy-5-(thiophen-3-ylmethoxy)pyridin-3-yl)-3,5-dimethylisoxazole] |  |  | 
300 to 3000 | 300 to 3000 | 300 to 3000 | ≤ 300 | COc1ncc(-c2c(C)noc2C)cc1Nc1ccc(F)cc1 [Example 19, 5-(3,5-dimethylisoxazol-4-yl)-N-(4-fluorophenyl)-2-methoxypyridin-3-amine] |  |  | 
